Key:
CL18_M− cell line = assay: Light chain gene conversion (GC) analysis according to Reversion assay; type: cell-based, chicken; conditions: one and two weeks of culture, PI3Kα Inhibitor 2 at 200 nM, versus CAL-101, CZC 24832, AS 604850 and CS(−)
Procedure: A frozen stock of the CL18_M− cell line (3.0×10^6 cells) was awaken with 10 mL of CS(−) medium, using a 25 cm^2 Flask, and the cells were then cultured in a CO2 incubator (39.5° C., 5% CO2). On the following day, 2 mL each of a CS(−) medium, to which each drug had been added, was added into each well of a 24 deep well plate (ThermoFisher Scientific, 95040480), and the cells were then seeded thereon to a cell density of 6.0×10^4 cells/mL (wherein the cell concentration and the survival rate were measured using CASY cell counter). After individual samples had been cultured for 2 days, the samples were subcultured under the same conditions to result in a cell density of 1.0×10^4 cells/mL. […] Thereafter, a plot, in which the vertical axis indicated FITC (Goat anti-Chicken IgM Antibody FITC Conjugated) and the longitudinal axis indicated PE (none), was developed, and the percentage of PE-_FITC+(cIgM+) cells was then calculated.
Meanwhile, after completion of the culture for 7 days, individual samples were subcultured under the same conditions to result in a cell density of 6.0×10^4 cells/mL. […] At the time point of Day 14 of the culture, individual samples were measured using FACS Canto II Flow Cytometer, as with the measurement on Day 7. […]

BMAA4-2 cell line = assay: Sequence change analysis using BMAA4-2 cell line according to flow cytometry (cIgM+_Sema3A− population); type: cell-based, chicken; conditions: BMAA4-2 cells, FCM at 1 week of culture, versus negative control CS(−)
Procedure: A frozen stock of the BMAA4-2 cell line (3.0×10^6 cells) was awaken with 10 mL of CS(−) medium, using a 25 cm^2 Flask (Corning, 430639), and the cells were then cultured in a CO2 incubator (SANYO CO2 Incubator MCO-20AIC, 39.5° C., 5% CO2). On the following day, 500 μL each of a CS(−) medium, to which each drug had been added, was added into each well of a 48-well dish (Nunc, 150687), and the cells were then seeded thereon to a cell density of 6.0×10^4 cells/mL (wherein the cell concentration and the survival rate were measured using CASY cell counter (Nepa Gene)). After individual samples had been cultured for 2 days, the samples were subcultured under the same conditions to result in a cell density of 1.0×10^4 cells/mL. […] Thereafter, a plot, in which the vertical axis indicated APC (AF647-labeled Sema3A) and the longitudinal axis indicated PE (Mouse Anti-Chicken IgM-PE), was developed, and the percentage of PE+ (cIgM+)_APC− (Sema3A−) cells was then calculated.
Using the BMAA4-2 cell line, a system for screening for a diversification-promoting compound was constructed (FIG. 1). […] Thus, the percentage of cIgM+_Sema3A− populations under individual culture conditions is measured and compared according to FCM, so that the effect of promoting changes in the amino acid sequences (i.e., the effect of promoting the diversification of the amino acid sequences) can be evaluated.

SMILES: Cc1nc(NC(=O)N2CCC[C@H]2C(N)=O)sc1-c1csc(C(C)(C)C)n1 [A66]
- Reversion activity (percentage of IgM expression-positive cells) (CL18_M− cell line): higher Reversion activity
- percentage of cIgM+_Sema3A− populations (sequence change-promoting action) (BMAA4-2 cell line): highest sequence change-promoting action
